SMILES strings stand for the structures.

The assay deals with S. cerevisiae tim23-1 mutant growth, luminescence. Nature of the assay: potency against tim23-1 yeast growth – luminescence, uHTS hits, dose response (AID 493002).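 Also: yeast grown roughly 22 hours at 25 °C before the luminescence read.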
Consider `Cc1ccc(NC(=O)c2cc(C)n(-c3ccccc3)c2C)cc1`, for which the IC50 was 21 µM.
As to `Oc1ccccc1-c1cc(-c2ccccc2)n[nH]1`, the IC50 was 15.8 µM.
In the case of `CC(C)(C)C(=O)c1sc(Nc2ccccc2)nc1N` it was 12 µM; in that of `CCc1ccc(NC(=O)/C(C#N)=C/c2ccncc2)cc1`, 4.41 µM.
In the case of `CC(C)CN(C(=O)c1ccc2c(c1)OCCO2)c1c(N)n(Cc2ccccc2)c(=O)[nH]c1=O`, the IC50 was 14.2 µM.
In the case of `Cc1occc1C(=O)N/N=C/C(Br)=C/c1ccccc1` it was 9.06 µM; in that of `COCCNC(=O)/C(C#N)=C/c1ccc(OCc2ccc(F)cc2)cc1`, 10.5 µM; in that of `O=C(Nc1ccc(-c2nc3ccccc3[nH]2)cc1)C1CCCO1` (configuration not stated), 14.4 µM.
Regarding `COC(=O)c1ccc(C(=O)OC)c(NC(=O)CSc2cccc[n+]2[O-])c1`, the IC50 is 4.4 µM.
`Cc1cc(C(=O)CCl)c(C)n1CCc1ccc(Cl)cc1`: the IC50 is 3.7 µM.
In the case of `CC(=O)Nc1ccc(S(=O)(=O)N(Cc2cccnc2)Cc2cc3ccc(C)cc3[nH]c2=O)cc1` it was 23.1 µM; in that of `CC(C)(C)c1csc(NC(=O)c2ccc(Cl)s2)n1`, 4.07 µM.
Take `O=C(CN1C(=O)S/C(=C/c2ccncc2)C1=O)Nc1ccccc1`: the IC50 is 13.5 µM.
Then `CCCCCCn1c(=O)c(-c2ccccc2)c(O)c2ccccc21`, with 8.95 µM.
For the compound `C/C(=N\Nc1nc2ccccc2s1)c1cccs1`, the IC50 is 9.27 µM.
In the case of `Cc1occc1C(=O)N/N=C/C(Br)=C\c1ccccc1` it was 13.7 µM.
In the case of `Nc1ncnc2c1ncn2[C@@H]1O[C@H](CO)C[C@H]1O`, the IC50 is 14 µM.
Turning to `Cc1ccc2occ(/C=N/NC(=O)c3ccccc3Br)c(=O)c2c1`, the IC50 was 9.7 µM.
In the case of `O=C1/C(=C/c2ccncc2)SC(=S)N1C1CCCCC1` it was 5.72 µM.
As to `O=C(Nc1ccc(-c2cn3ccccc3n2)cc1)c1ccco1`, the concentration for half-maximal inhibition (IC50) was 6.01 µM.
In the case of `Cc1[nH]c2ccccc2c1C(=O)/C=C/c1ccccc1` it was 9.05 µM; in that of `CCOC(=O)c1c(N)sc(C(=O)Nc2ccccc2)c1C`, 4.11 µM.
As for `COC(=O)c1ccc2nc(NC(=O)C3CC3)sc2c1`, the IC50 was 7.12 µM.
In the case of `O=C(Nc1ccc(F)c(Cl)c1)C1CC2CCC1C2` (configuration not stated) it was 21.6 µM.
Then `COc1ccc2c(c1)sc1nc(-c3ccccc3)cn12`, with 6.68 µM; and `Cc1cccc(C(=O)Oc2cccc3c(O)cccc23)c1`, with 8.32 µM.
In the case of `COc1ccc(-c2nc3ccccc3[nH]2)cc1`, the IC50 was 18 µM.
Turning to `Cc1ccc(O)c(N=Cc2cc(Cc3ccccc3)cc([N+](=O)[O-])c2O)c1`, the IC50 is 10.6 µM.
As for `O=C(NCCCc1ccccc1)Nc1cccc(Cl)c1`, the IC50 was 9.3 µM.
Then `COCCNC(=O)/C(C#N)=C/c1ccc(OCc2ccccc2)cc1`, with 9.3 µM.
Then `CC(=O)Nc1cccc(-c2cc(-c3c(Cl)cccc3Cl)no2)c1`, with 11.1 µM; and `Cn1nc(C(F)(F)F)c2cc(NC(=O)OCC(C)(C)C)sc21`, with 28.2 µM; and `O=C(Nc1cn(-c2ccccc2)nc1-c1cccs1)c1ccco1`, with 29 µM.
Then `c1ccc(N=Nc2cn[nH]c2-c2ccco2)cc1`, with 11.3 µM; and `Cc1ccc(Nc2ccc([N+](=O)[O-])nc2[N+](=O)[O-])cc1`, with 44.3 µM; and `Cc1ccc(S(=O)(=O)N2C(=O)[C@@H]3Cc4ccccc4CN3C2=O)cc1`, with 30.5 µM.
In the case of `O=C(Nc1ccc2oc(-c3ccccc3)nc2c1)c1cccs1`, the IC50 is 0.39 µM.
In the case of `COc1cc(C(=O)N/N=C/c2coc3ccc(Cl)cc3c2=O)ccc1O` it was 4.34 µM; in that of `Cc1ccc(-c2nc(CNC(=O)c3cc(C)on3)cs2)cc1`, 15 µM.
On to `Cc1nc2c(n1C1CCCCC1)C(=O)c1ccccc1C2=O`, for which the IC50 was 10.8 µM.
For the compound `COc1ccc(C(=O)N/N=C/c2ccc(OC)c(COc3ccc(F)cc3F)c2)cc1`, the half-maximal inhibitory concentration (IC50) is 24.9 µM.
On to `COc1cccc(C2=NN(C(=O)c3ccco3)C(c3ccco3)C2)c1` (configuration not stated), for which the IC50 was 20.4 µM.
Consider `O=C1/C(=C/c2cccs2)Cc2ccccc21`, for which the IC50 is 16.1 µM.
Then `CC(C)OC(=O)c1cccnc1SCc1cc(=O)n2ccccc2n1`, with 9.68 µM.
In the case of `COC(=O)N/N=C/c1ccc(-c2cc(Cl)cc(Cl)c2)o1` it was 8.73 µM; in that of `O=c1oc(Cl)c(Cl)c2ccccc12`, 3.83 µM; in that of `N#C/C(=C\c1ccc(O)cc1)c1nc2ccccc2o1`, 6.42 µM.
Then `CCOC(=O)C1=C(CSc2nc(CC)c(C)cc2C#N)OC(N)=C(C#N)C1c1ccc(OC)cc1` (configuration not stated), with 17.8 µM.
On to `O=c1c2cc(Br)ccc2nc(-c2ccccc2)n1O`, for which the IC50 was 19.1 µM.
In the case of `CCC(C)c1ccc(NC(=O)C2CC3CCC2C3)cc1` (configuration not stated) it was 12.5 µM; in that of `CCCCc1cc(O)c(CCCC)c(O)c1`, 3.69 µM.
In the case of `CCc1ccc2oc(-c3cc(N)ccc3Cl)nc2c1` it was 6.18 µM; in that of `CC1(C)CC2CC(C)(CN2C(=O)c2cc(-c3ccc(O)cc3)on2)C1` (configuration not stated), 15.3 µM; in that of `NC(=S)NNc1cc(Cl)cc(Cl)c1`, 10.5 µM.
As to `O=C(Oc1cccc2c(O)cccc12)c1ccccc1`, the concentration for half-maximal inhibition (IC50) is 8.69 µM.
Regarding `CCCC(=O)NC(c1ccc(C(C)C)cc1)c1ccc2cccnc2c1O` (configuration not stated), the IC50 is 7.2 µM.
In the case of `CCCN(C(=O)c1ccc([N+](=O)[O-])c(C)c1)c1c(N)n(Cc2ccccc2)c(=O)[nH]c1=O` it was 5.69 µM; in that of `CC(C)CN1C(=O)c2ccc(NC(=O)c3ccco3)cc2C1=O`, 20.2 µM; in that of `Clc1nssc1=Nc1nncs1`, 3.05 µM.
As for `COc1cc(OC)cc(C(=O)Nc2ccc(Nc3ccccc3)cc2)c1`, the IC50 was 9.92 µM.
Turning to `CCCn1nnc(NC(=O)c2sc3ccccc3c2Cl)n1`, the IC50 was 20.7 µM.
Consider `O=C1/C(=C/c2cccs2)COc2ccccc21`, for which the IC50 was 8.37 µM.
Consider `Cc1ccn2cc(-c3ccc(NC(=O)c4ccco4)cc3)nc2c1`, for which the IC50 was 17.6 µM.
Consider `N#C/C(=C\c1ccc(Cl)cc1)C(=O)NC1CC1`, for which the IC50 was 7.09 µM.
As for `Nc1ccc(N=Nc2ccccc2O)c(N)c1`, the IC50 was 15.3 µM.
As for `CCCCC(=O)Nc1ccc(NC(=O)c2cccs2)cn1`, the IC50 was 18.8 µM.
Then `O=C(CS(=O)(=O)c1ccccc1)Nc1nc(-c2ccc(F)cc2)cs1`, with 14.2 µM; and `O=C(Nc1ccc2nc(-c3ccc(Br)o3)[nH]c2c1)c1cccs1`, with 1.35 µM.
In the case of `CC1CCc2c(sc3nc(C(C)(C)C)nc(N4CCN(C(=O)CCl)CC4)c23)C1` (configuration not stated) it was 8.61 µM.
Then `COc1ccc(C(=O)N/N=C\c2coc3ccc(Cl)cc3c2=O)cc1`, with 8.27 µM; and `CN1C(=O)/C(=C\c2ccco2)N=C1c1ccc(Cl)cc1Cl`, with 12.8 µM; and `COc1ccc(CCn2c(C(C)C)nc3oc4ccccc4c(=O)c3c2=O)cc1`, with 14.2 µM.
With `Cc1ccc(-c2nc3n(n2)Cc2ccccc2-3)cc1`, the IC50 is 15.4 µM.
Take `COc1ccc(C(=O)N2CCc3ccc(NC(=O)c4ccccn4)cc3C2)cc1F`: the IC50 is 23.8 µM.
In the case of `C/C=C/c1ccc(OCCOc2cc(C=O)ccc2OC)c(OC)c1` it was 8.44 µM; in that of `Oc1ccccc1-c1cc(-c2cccc(F)c2)n[nH]1`, 13.2 µM.
With `CC(=O)c1sc(-c2ccc(Cl)cc2)cc1N`, the IC50 is 18.8 µM.
